In US20130109682A1, “CYCLIC ETHER COMPOUNDS USEFUL AS KINASE INHIBITORS” (NOVARTIS AG, priority 2010, published 2013) one finds IC50 and EC50 data, which are given here for 16 molecules.

One test addresses PIM1 (Homo sapiens, UniProt P11309). Kind of test: KinaseGlo Pim1 ATP depletion assay. The class given is biochemical. Summed up: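 2.5 nM PIM1 preincubated 15 min with compound and 40 μM BAD peptide in 50 mM HEPES pH 7.5, 5 mM MgCl2, 1 mM DTT, 0.05% BSA, 2.5% DMSO. The reaction was started with 20 μM ATP (final) and run to about 50% ATP depletion. Remaining ATP read by KinaseGlo Plus luminescence to give IC50.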

A further test deals with PIM2 (Homo sapiens, UniProt Q9P1W9). Kind of test: KinaseGlo Pim2 ATP depletion assay. The format is biochemical. A digest of the protocol: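 Luminescent ATP-depletion read-out of PIM2 phosphorylating BAD peptide (RSRHSSYPAGT-OH). Final conditions: 5 nM PIM2, 4 μM ATP, 10 μM peptide, 2.5% DMSO in 50 mM HEPES pH 7.5, 5 mM MgCl2, 1 mM DTT, 0.05% BSA. Enzyme–peptide preincubated 15 min with compound; reaction run to ~50% ATP depletion.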
Sequence of PIM2 (Q9P1W9 whole entry): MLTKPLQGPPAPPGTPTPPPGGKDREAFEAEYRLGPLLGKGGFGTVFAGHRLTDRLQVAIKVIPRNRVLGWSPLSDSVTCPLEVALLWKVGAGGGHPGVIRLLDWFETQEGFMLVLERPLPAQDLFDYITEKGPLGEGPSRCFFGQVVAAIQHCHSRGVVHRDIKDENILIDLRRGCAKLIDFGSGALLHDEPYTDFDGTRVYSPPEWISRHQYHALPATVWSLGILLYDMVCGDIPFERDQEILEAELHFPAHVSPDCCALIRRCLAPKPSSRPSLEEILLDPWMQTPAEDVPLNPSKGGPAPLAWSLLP

The next test deals with PIM3 (Homo sapiens, UniProt Q86V86). The test is described as follows: KinaseGlo Pim3 ATP depletion assay. The format is biochemical. Summed up: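 Kinase was preincubated 15 min with BAD peptide in HEPES pH 7.5/MgCl2/DTT/BSA before ATP was added. Final concentrations were 40 μM ATP, 100 μM BAD peptide and 2.5% DMSO, with 5 nM enzyme. The reaction ran to ~50% ATP depletion and remaining ATP was read by KinaseGlo Plus luminescence.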

The target in a further test is GSK3β (Homo sapiens, UniProt P49841). The test is described as follows: GSK3β ATP depletion assay. The class given is biochemical. To be noted: read-out: GSK3b IC50. Summed up: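 Human GSK3β (5 nM) preincubated 15 min with 10 μM biotinylated phospho-CREB peptide in pH 7.5 Tris buffer (15 mM MgCl2, 1 mM DTT, 0.1% BSA, 2.5% DMSO). Reaction started with 2 μM ATP and run to about 50% ATP depletion. Remaining ATP measured by KinaseGlo luminescence.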
Sequence of GSK3β (P49841 whole entry, species assumed): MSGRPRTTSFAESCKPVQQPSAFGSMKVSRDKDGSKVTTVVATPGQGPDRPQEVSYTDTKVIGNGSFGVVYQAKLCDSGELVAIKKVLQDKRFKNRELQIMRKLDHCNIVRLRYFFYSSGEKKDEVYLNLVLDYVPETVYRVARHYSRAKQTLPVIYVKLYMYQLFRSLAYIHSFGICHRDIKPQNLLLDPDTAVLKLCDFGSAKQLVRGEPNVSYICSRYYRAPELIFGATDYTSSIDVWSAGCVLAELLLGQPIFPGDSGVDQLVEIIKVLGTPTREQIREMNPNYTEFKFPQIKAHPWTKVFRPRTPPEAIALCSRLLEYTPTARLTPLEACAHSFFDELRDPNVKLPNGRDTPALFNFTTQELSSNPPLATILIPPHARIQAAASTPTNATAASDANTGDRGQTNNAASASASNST

Test [1] concerns KMS11 (human myeloma cell line). Kind of test: Cell proliferation assay (CellTiter-Glo), KMS11. The format is cell-based. Conditions: Homo sapiens, KMS-11; KMS11-Luc cells. A digest of the protocol: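 KMS11 cells in IMDM with 10% FBS and sodium pyruvate, seeded at 2000 cells/well on assay day. Compound added at 2× to equal volume of cells, incubated 3 days at 37° C. Viability read by CellTiter-Glo luminescence; EC50 derived.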

Sequence of PIM1 (P11309 whole entry): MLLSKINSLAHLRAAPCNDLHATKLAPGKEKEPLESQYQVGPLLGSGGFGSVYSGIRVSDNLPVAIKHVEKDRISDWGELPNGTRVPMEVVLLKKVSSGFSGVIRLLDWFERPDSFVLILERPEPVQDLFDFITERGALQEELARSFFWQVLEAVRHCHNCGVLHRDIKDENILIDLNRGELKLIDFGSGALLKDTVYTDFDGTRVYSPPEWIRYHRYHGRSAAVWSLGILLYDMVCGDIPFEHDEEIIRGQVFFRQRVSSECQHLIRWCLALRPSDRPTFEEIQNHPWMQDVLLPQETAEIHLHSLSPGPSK

As to `CC[C@]1(O)[C@H](O)C[C@H](c2ccncc2NC(=O)c2nc(-c3ccccc3)cnc2N)O[C@@H]1C` [Example 15, 3-amino-N-(4-((2R,4R,5S,6R)-5-ethyl-4,5-dihydroxy-6-methyltetrahydro-2H-pyran-2-yl)pyridin-3-yl)-6-phenylpyrazine-2-carboxamide], the IC50 at PIM1 was 0.001 µM; at PIM2, 0.008 µM; on PIM3, 0.002 µM; at GSK3β it was 0.001 µM. A half-maximal response in test [1] (EC50) required 0.184 µM.
For `Nc1cnc(-c2c(F)cccc2F)nc1C(=O)Nc1cnccc1[C@H]1C[C@@H](O)[C@H](O)[C@@H](CCl)O1` [Example 17, 5-amino-N-(4-((2R,4R,5S,6S)-6-(chloromethyl)-4,5-dihydroxytetrahydro-2H-pyran-2-yl)pyridin-3-yl)-2-(2,6-difluorophenyl)pyrimidine-4-carboxamide], the half-inhibitory concentration (IC50) was 0.002 µM against PIM1, 0.003 µM on PIM2, 0.004 µM against PIM3 and 0.066 µM on GSK3β. Besides, the 50% effective concentration (EC50) in test [1] was 4.16 µM.
Take `CC[C@H]1O[C@@H](c2ccncc2NC(=O)c2nc(-c3c(F)cccc3F)ncc2N)C[C@@H](O)[C@@H]1O` [Example 18, 5-amino-2-(2,6-difluorophenyl)-N-(4-((2R,4R,5S,6R)-6-ethyl-4,5-dihydroxytetrahydro-2H-pyran-2-yl)pyridin-3-yl)pyrimidine-4-carboxamide]: the half-inhibitory concentration (IC50) was determined as 0.003 µM on PIM1, 0.005 µM at PIM2, 0.005 µM against PIM3 and 0.191 µM at GSK3β. In test [1], this molecule registered an EC50 of 5.71 µM.
For the molecule `C=C[C@H]1OC(c2ccncc2NC(=O)c2nc(-c3ccccc3)ncc2N)=C[C@@H](O)[C@@H]1O` [Example 22, 5-amino-N-(4-((2R,3S,4R)-3,4-dihydroxy-2-vinyl-3,4-dihydro-2H-pyran-6-yl)pyridin-3-yl)-2-phenylpyrimidine-4-carboxamide], the concentration for half-maximal inhibition (IC50) against PIM1 came to 0.02 µM; on PIM2, 0.16 µM; against PIM3, 0.009 µM; at GSK3β, 0.87 µM. The molecule also gave an EC50 in test [1] above 10 µM.
Take `C=C[C@H]1OC(c2ccncc2NC(=O)c2ccnc(-c3c(F)cccc3F)n2)=C[C@@H](O)[C@@H]1O` [Example 23, 2-(2,6-difluorophenyl)-N-(4-((2R,3S,4R)-3,4-dihydroxy-2-vinyl-3,4-dihydro-2H-pyran-6-yl)pyridin-3-yl)pyrimidine-4-carboxamide]: the IC50 is 0.006 µM at PIM1, 0.041 µM at PIM2, 0.008 µM at PIM3 and 0.2 µM at GSK3β. The same molecule showed an EC50 in test [1] above 10 µM.
The corresponding values for `C=C[C@H]1OC(c2ccncc2NC(=O)c2nc(-c3ccccc3F)c(F)cc2N)=C[C@@H](O)[C@@H]1O` [Example 24, 3-amino-N-(4-((2R,3S,4R)-3,4-dihydroxy-2-vinyl-3,4-dihydro-2H-pyran-6-yl)pyridin-3-yl)-5-fluoro-6-(2-fluorophenyl)picolinamide] are 0.001 µM, 0.007 µM, 0.004 µM, 0.177 µM and 7.37 µM.
The corresponding values for `C=C[C@H]1OC(c2ccncc2NC(=O)c2nc(-c3c(F)cccc3F)c(F)cc2N)=C[C@@H](O)[C@@H]1O` [Example 25, 3-amino-6-(2,6-difluorophenyl)-N-(4-((2R,3S,4R)-3,4-dihydroxy-2-vinyl-3,4-dihydro-2H-pyran-6-yl)pyridin-3-yl)-5-fluoropicolinamide] are 0.001 µM, 0.002 µM, 0.002 µM, 0.66 µM and 1.35 µM.
For the molecule `CC[C@]1(O)[C@H](O)C[C@H](c2ccncc2NC(=O)c2nc(-c3ccccc3)ncc2N)O[C@@H]1C` [Example 26, 5-amino-N-(4-((2R,4R,5S,6R)-5-ethyl-4,5-dihydroxy-6-methyltetrahydro-2H-pyran-2-yl)pyridin-3-yl)-2-phenylpyrimidine-4-carboxamide], the half-maximal inhibitory concentration (IC50) was 0.004 µM against PIM1, 0.029 µM on PIM2, 0.002 µM against PIM3 and 0.277 µM at GSK3β. In test [1], this molecule showed an EC50 above 10 µM.
On to `O=C(Nc1cnccc1C1=C[C@@H](O)[C@H](O)[C@@H](CCl)O1)c1ccnc(-c2c(F)cccc2F)n1` [Example 28, N-(4-((2S,3S,4R)-2-(chloromethyl)-3,4-dihydroxy-3,4-dihydro-2H-pyran-6-yl)pyridin-3-yl)-2-(2,6-difluorophenyl)pyrimidine-4-carboxamide], for which the IC50 against PIM1 was determined as 0.002 µM; on PIM2, 0.007 µM; at PIM3, 0.003 µM; on GSK3β, 0.022 µM. For the same molecule, the response in test [1] was half-maximal at 0.808 µM (EC50).
For the molecule `Nc1cc(F)c(-c2ccccc2F)nc1C(=O)Nc1cnccc1C1=C[C@@H](O)[C@H](O)[C@@H](CCl)O1` [Example 29, 3-amino-N-(4-((2S,3S,4R)-2-(chloromethyl)-3,4-dihydroxy-3,4-dihydro-2H-pyran-6-yl)pyridin-3-yl)-5-fluoro-6-(2-fluorophenyl)picolinamide], the IC50 against PIM1 came to 0.001 µM; on PIM2 it was 0.001 µM; against PIM3, 0.001 µM; at GSK3β it was 0.041 µM. The response in test [1] was half-maximal at 4.67 µM (EC50).
For the molecule `Nc1cc(F)c(-c2c(F)cccc2F)nc1C(=O)Nc1cnccc1C1=C[C@@H](O)[C@H](O)[C@@H](CCl)O1` [Example 30, 3-amino-N-(4-((2S,3S,4R)-2-(chloromethyl)-3,4-dihydroxy-3,4-dihydro-2H-pyran-6-yl)pyridin-3-yl)-6-(2,6-difluorophenyl)-5-fluoropicolinamide], the IC50 against PIM1 turned out to be 0.001 µM; on PIM2, 0.001 µM; at PIM3, 0.001 µM; at GSK3β, 0.201 µM. This molecule also came in with a half-maximal effective concentration (EC50) in test [1] of 0.825 µM.
`O=C(Nc1cnccc1C1=C[C@@H](O)[C@H](O)[C@@H](CCl)O1)c1ccc(F)c(-c2c(F)cccc2F)n1` [Example 31, N-(4-((2S,3S,4R)-2-(chloromethyl)-3,4-dihydroxy-3,4-dihydro-2H-pyran-6-yl)pyridin-3-yl)-6-(2,6-difluorophenyl)-5-fluoropicolinamide]: the IC50 amounted to 0.001 µM at PIM1, 0.001 µM against PIM2, 0.001 µM against PIM3 and 0.117 µM on GSK3β. The response in test [1] was half-maximal at 1.9 µM (EC50).
Take `C[C@H]1O[C@@H](c2ccncc2NC(=O)c2nc(-c3c(F)cccc3F)c(F)cc2N)C[C@@H](O)[C@]1(C)O` [Example 33, 3-amino-6-(2,6-difluorophenyl)-N-(4-((2R,4R,5S,6R)-4,5-dihydroxy-5,6-dimethyltetrahydro-2H-pyran-2-yl)pyridin-3-yl)-5-fluoropicolinamide]: the IC50 turned out to be 0.001 µM at PIM1, 0.002 µM at PIM2, 0.002 µM on PIM3 and 0.276 µM at GSK3β. Further, in test [1], the EC50 is 4.53 µM.
Turning to `CC[C@H]1O[C@@H](c2ccncc2NC(=O)c2ccnc(-c3c(F)cccc3F)n2)C[C@@H](O)[C@@H]1O` [Example 34, 2-(2,6-difluorophenyl)-N-(4-((2R,4R,5S,6R)-6-ethyl-4,5-dihydroxytetrahydro-2H-pyran-2-yl)pyridin-3-yl)pyrimidine-4-carboxamide], the IC50 at PIM1 amounted to 0.022 µM; against PIM2, 0.17 µM; on PIM3, 0.038 µM; on GSK3β it was 0.061 µM. Moreover, the 50% effective concentration (EC50) in test [1] stood at 5 µM.
Regarding `Nc1cc(F)c(-c2c(F)cccc2F)nc1C(=O)Nc1cnccc1[C@H]1C[C@@H](O)[C@H](O)[C@@H](CCl)O1` [Example 35, 3-amino-N-(4-((2R,4R,5S,6S)-6-(chloromethyl)-4,5-dihydroxytetrahydro-2H-pyran-2-yl)pyridin-3-yl)-6-(2,6-difluorophenyl)-5-fluoropicolinamide], the concentration for half-maximal inhibition (IC50) on PIM1 came to 0.001 µM; against PIM2, 0.001 µM; against PIM3 it was 0.001 µM; at GSK3β, 0.088 µM. The molecule also returned an EC50 in test [1] of 1 µM.
Take `O=C(Nc1cnccc1[C@H]1C[C@@H](O)[C@H](O)[C@@H](CCl)O1)c1ccnc(-c2c(F)cccc2F)n1` [Example 37, N-(4-((2R,4R,5S,6S)-6-(chloromethyl)-4,5-dihydroxytetrahydro-2H-pyran-2-yl)pyridin-3-yl)-2-(2,6-difluorophenyl)pyrimidine-4-carboxamide]: the half-maximal inhibitory concentration (IC50) on PIM1 was 0.012 µM; at PIM2 it was 0.065 µM; against PIM3, 0.017 µM; on GSK3β, 0.014 µM. The molecule further gave a concentration for a half-maximal effect (EC50) in test [1] above 10 µM.
